Test [1] concerns the target mutant BRAF kinase (Homo sapiens (Human), UniProt P15056, V600E). Particulars: read-out: BRAF V600E Kd, class symbols.
Test [2] concerns the target T1, wild type BRAF kinase (Homo sapiens (Human), UniProt P15056). The test can be described thus: biochemical.
Test [3] deals with panel of 290 distinct kinases (321 in the larger panel), excluding mutant variants. The settings on record: kinase selectivity score, class symbols.
For test [4], the target named is RAF kinases (Homo sapiens (Human), UniProt P04049). Particulars: read-out: RAF1 Kd, class symbols.
Chain of RAF kinases (P04049 whole entry): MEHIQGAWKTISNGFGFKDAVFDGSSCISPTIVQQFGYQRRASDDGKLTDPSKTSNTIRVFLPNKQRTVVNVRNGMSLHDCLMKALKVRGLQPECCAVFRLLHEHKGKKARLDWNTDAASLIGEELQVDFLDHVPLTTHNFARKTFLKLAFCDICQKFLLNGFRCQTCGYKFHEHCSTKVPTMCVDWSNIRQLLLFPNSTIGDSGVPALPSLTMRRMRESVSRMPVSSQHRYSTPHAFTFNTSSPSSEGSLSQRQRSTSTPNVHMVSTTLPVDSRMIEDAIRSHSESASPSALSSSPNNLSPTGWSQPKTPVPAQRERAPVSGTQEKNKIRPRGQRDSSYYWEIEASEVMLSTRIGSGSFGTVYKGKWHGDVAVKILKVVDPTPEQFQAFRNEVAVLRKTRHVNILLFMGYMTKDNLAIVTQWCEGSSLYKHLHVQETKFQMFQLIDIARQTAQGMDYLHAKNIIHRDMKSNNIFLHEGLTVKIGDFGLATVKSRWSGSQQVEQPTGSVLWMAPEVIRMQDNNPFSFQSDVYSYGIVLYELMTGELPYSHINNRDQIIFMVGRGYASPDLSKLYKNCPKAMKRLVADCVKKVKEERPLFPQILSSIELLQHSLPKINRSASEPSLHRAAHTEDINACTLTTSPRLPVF
Description: The liganded beads were blocked with excess biotin and washed with blocking buffer (SeaBlock (Pierce), 1% BSA, 0.05% Tween 20, 1 mM DTT) to remove unbound ligand and to reduce non-specific binding. […] Test compounds were prepared as 100× stocks in DMSO and rapidly diluted into the aqueous environment. DMSO was added to control assays lacking a test compound. Primary screen interactions were performed in polypropylene 384-well plates in a final volume of 34 μL, while Kd determinations were performed in polystyrene 96-well plates in a final volume of 135 μL. […] The kinase concentration in the eluates was measured by quantitative PCR. Each kinase was tested individually against each compound. KdS were determined using eleven serial threefold dilutions. A selectivity score, which is a quantitative measure of selectivity of a compound against a panel of enzymes, may be calculated for a compound by dividing the number of enzymes for which a compound meets a set criteria, (for example, a binding constant of 100 nM or less), by the total number of enzymes tested. […] (Note, for those compounds tested in a larger kinase panel, as indicated by an asterisk (*) next to the S35 score, the divisor is 321 (i.e. the larger panel contains 321 distinct kinases, excluding mutant variants.)).
The target in test [5] is T1, wild type BRAF kinase. The settings on record: read-out: BRAF WT Kd, class symbols.
The mark [6] stands for this setting: value marked * (larger kinase panel).

Broadly, the Kd is the concentration at which binding is half-saturated.

Where two headings read alike, the source gives them in different places.

T1 sequence (P15056 whole entry): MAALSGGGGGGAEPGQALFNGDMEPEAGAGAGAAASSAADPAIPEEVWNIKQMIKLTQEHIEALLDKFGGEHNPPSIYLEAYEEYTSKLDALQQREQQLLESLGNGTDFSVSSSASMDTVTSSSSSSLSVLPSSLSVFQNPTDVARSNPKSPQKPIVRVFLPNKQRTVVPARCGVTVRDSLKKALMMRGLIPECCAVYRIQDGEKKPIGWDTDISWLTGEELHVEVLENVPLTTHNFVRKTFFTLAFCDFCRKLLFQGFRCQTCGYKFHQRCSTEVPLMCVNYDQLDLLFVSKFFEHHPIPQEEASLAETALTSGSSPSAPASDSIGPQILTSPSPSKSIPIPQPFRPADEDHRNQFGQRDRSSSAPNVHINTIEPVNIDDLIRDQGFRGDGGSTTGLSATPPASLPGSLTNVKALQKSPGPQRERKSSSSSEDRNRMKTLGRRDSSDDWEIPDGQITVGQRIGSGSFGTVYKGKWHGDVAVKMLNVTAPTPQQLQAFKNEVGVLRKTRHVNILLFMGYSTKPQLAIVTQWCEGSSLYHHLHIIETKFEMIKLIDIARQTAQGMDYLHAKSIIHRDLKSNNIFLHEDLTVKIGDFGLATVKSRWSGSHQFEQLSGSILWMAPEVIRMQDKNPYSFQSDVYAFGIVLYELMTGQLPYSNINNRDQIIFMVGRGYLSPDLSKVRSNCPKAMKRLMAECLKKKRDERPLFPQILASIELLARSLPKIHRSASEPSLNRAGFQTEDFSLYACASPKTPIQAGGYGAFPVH
Chain of mutant BRAF kinase (P15056 whole entry V600E): as the sequence (P15056 whole entry) above, with V600E counted along it

For the molecule `COc1cc2ncnc(Oc3cccc(NC(=O)Nc4cc(C(C)(C)C)on4)c3)c2cc1O[C@H]1CCN(C)C1` [Ex 109, (S)-1-(5-tert-butylisoxazol-3-yl)-3-(3-(7-methoxy-6-(1-methylpyrrolidin-3-yloxy)quinazolin-4-yloxy)phenyl)urea], the Kd in test [1] is less than 250 nM; in test [2] it was 250 to 500 nM; in test [4], less than 250 nM. The S35 entry in test [3] (290 distinct kinases) is listed as “D (D > 0.40)”.
On to `COc1cc2ncnc(Oc3cccc(NC(=O)Nc4cc(C(C)C)no4)c3)c2cc1OC` [Ex 122, 1-(3-(6,7-dimethoxyquinazolin-4-yloxy)phenyl)-3-(3-isopropylisoxazol-5-yl)urea], for which the Kd in test [1], in test [5] and in test [4] was less than 250 nM in each case. The S35 entry in test [3] (290 distinct kinases) is recorded as “C (0.20 < C ≦ 0.40)”.
In the case of `COc1cc2ncnc(Oc3cccc(NC(=O)Nc4cc(C5CC5)no4)c3)c2cc1OC` [Ex 124, 1-(3-cyclopropylisoxazol-5-yl)-3-(3-(6,7-dimethoxyquinazolin-4-yloxy)phenyl)urea], the Kd in test [1], in test [5] and in test [4] was less than 250 nM each time. Besides, in test [3] (290 distinct kinases), the S35 entry is listed as “C (0.20 < C ≦ 0.40)”.
Regarding `COc1cc2ncnc(Oc3cccc(NC(=O)Nc4cc(C5(C)CC5)on4)c3)c2cc1OC` [Ex 127, 1-(3-(6,7-dimethoxyquinazolin-4-yloxy)phenyl)-3-(5-(1-methylcyclopropyl)isoxazol-3-yl)urea], the Kd in test [1], in test [5] and in test [4] was less than 250 nM each time. Also, in test [3] (290 distinct kinases), the S35 entry was “C (0.20 < C ≦ 0.40)”.
In the case of `COCC(C)(C)c1cc(NC(=O)Nc2cccc(Oc3ncnc4cc(OC)c(OC)cc34)c2)on1` [Ex 128, 1-(3-(6,7-dimethoxyquinazolin-4-yloxy)phenyl)-3-(3-(1-methoxy-2-methylpropan-2-yl)isoxazol-5-yl)urea], the Kd is less than 250 nM in test [1], more than 1000 nM in test [5] and more than 1000 nM in test [4]. Moreover, in test [3] (setting [6]), the S35 entry is on record as “C* (0.20 < C ≦ 0.40)”.
Regarding `COc1cc2ncnc(Oc3cccc(NC(=O)Nc4cc(C(C)C)on4)c3)c2cc1OC` [Ex 133, 1-(3-(6,7-dimethoxyquinazolin-4-yloxy)phenyl)-3-(5-isopropylisoxazol-3-yl)urea], the Kd in test [1], in test [5] and in test [4] was less than 250 nM throughout. In test [3] (setting [6]), the S35 entry was “C* (0.20 < C ≦ 0.40)”.
As for `COc1cc2ncnc(Sc3cccc(NC(=O)Nc4cc(C(C)C)on4)c3)c2cc1OC` [Ex 134, 1-(3-(6,7-dimethoxyquinazolin-4-ylthio)phenyl)-3-(5-isopropylisoxazol-3-yl)urea], the Kd in test [1], in test [5] and in test [4] was less than 250 nM in each case. The S35 result in test [3] (setting [6]) is listed as “C* (0.20 < C ≦ 0.40)”.
On to `COc1cc2ncnc(Oc3cccc(NC(=O)Nc4cc(C5CCCC5)on4)c3)c2cc1OC` [Ex 135, 1-(5-cyclopentylisoxazol-3-yl)-3-(3-(6,7-dimethoxyquinazolin-4-yloxy)phenyl)urea], for which the Kd in test [1], in test [5] and in test [4] was less than 250 nM in each case. The S35 entry in test [3] (setting [6]) is listed as “C* (0.20 < C ≦ 0.40)”.
In the case of `COc1cc2ncnc(Oc3cccc(NC(=O)Nc4cc(C(C)(C)F)on4)c3)c2cc1OC` [Ex 136, 1-(3-(6,7-dimethoxyquinazolin-4-yloxy)phenyl)-3-(5-(2-fluoropropan-2-yl)isoxazol-3-yl)urea], the Kd in test [1], in test [5] and in test [4] was less than 250 nM in each case. Further, the S35 result in test [3] (setting [6]) is on record as “C* (0.20 < C ≦ 0.40)”.
Take `COCCOc1cc2ncnc(Oc3cccc(NC(=O)Nc4ccc(OC)c(C(F)(F)F)c4)c3)c2cc1OC` [Ex 139, 1-(4-methoxy-3-(trifluoromethyl)phenyl)-3-(3-(6-methoxy-7-(2-methoxyethoxy)quinazolin-4-yloxy)phenyl)urea]: the Kd in test [1], in test [5] and in test [4] was less than 250 nM in each case. Also, the S35 result in test [3] (setting [6]) was “C* (0.20 < C ≦ 0.40)”.
Regarding `COc1cc2ncnc(Oc3cccc(NC(=O)Nc4cc(C(F)(F)F)ccn4)c3)c2cc1OC` [Ex 141, 1-(3-(6,7-dimethoxyquinazolin-4-yloxy)phenyl)-3-(4-(trifluoromethyl)pyridin-2-yl)urea], the Kd in test [1], in test [5] and in test [4] was less than 250 nM each time. Besides, the S35 result in test [3] (290 distinct kinases) is on record as “C (0.20 < C ≦ 0.40)”.
`COc1cc2ncnc(Sc3cccc(NC(=O)Nc4cc(C(C)(C)C)nn4-c4ccccc4)c3)c2cc1OC` [Ex 154, 1-(3-tert-butyl-1-phenyl-1H-pyrazol-5-yl)-3-(3-(6,7-dimethoxyquinazolin-4-ylthio)phenyl)urea]: the Kd in test [1], in test [5] and in test [4] was more than 1000 nM in each case. For the same molecule, the S35 entry in test [3] (setting [6]) is recorded as “D* (D > 0.40)”.
Take `COc1cc2ncnc(Oc3cccc(NC(=O)Nc4cc(C(F)(F)F)nn4C)c3)c2cc1OC` [Ex 164, 1-[3-(6,7-dimethoxyquinazolin-4-yloxy)phenyl]-3-[1-methyl-3-(trifluoromethyl)-1H-pyrazol-5-yl]urea]: the Kd in test [1], in test [5] and in test [4] was less than 250 nM each time. Besides, the S35 result in test [3] (setting [6]) is “C* (0.20 < C ≦ 0.40)”.
Regarding `COc1cc2ncnc(Oc3cccc(NC(=O)Nc4cc(C(F)(F)F)n(C)n4)c3)c2cc1OC` [Ex 165, 1-[3-(6,7-dimethoxyquinazolin-4-yloxy)phenyl]-3-[1-methyl-5-(trifluoromethyl)-1H-pyrazol-3-yl]urea], the Kd in test [1], in test [5] and in test [4] was less than 250 nM each time. The S35 entry in test [3] (setting [6]) is reported as “C* (0.20 < C ≦ 0.40)”.
Take `COc1cc2ncnc(Oc3cccc(NC(=O)Nc4cc(C(C)(CF)CF)nn4-c4ccccc4)c3)c2cc1OC` [Ex 167, 1-[3-(1,3-difluoro-2-methylpropan-2-yl)-1-phenyl-1H-pyrazol-5-yl]-3-[3-(6,7-dimethoxyquinazolin-4-yloxy)phenyl]urea]: the dissociation constant (Kd) in test [1], in test [5] and in test [4] was more than 1000 nM each time. For the same molecule, in test [3] (setting [6]), the S35 result was “D* (D > 0.40)”.
Turning to `COc1ccc(NC(=O)Nc2cccc(Oc3ncnc4cc(OC)c(OC)cc34)c2)cc1Cl` [Ex 180, 1-(3-chloro-4-methoxyphenyl)-3-(3-(6,7-dimethoxyquinazolin-4-yloxy)phenyl)urea], the Kd in test [1], in test [5] and in test [4] was less than 250 nM each time. Further, the S35 result in test [3] (setting [6]) is “B* (0.10 < B ≦ 0.20)”.
For `COc1cc2ncnc(Oc3cccc(NC(=O)Nc4cccc(C(F)(F)F)c4)c3)c2cc1OC` [Ex 181, 1-(3-(6,7-dimethoxyquinazolin-4-yloxy)phenyl)-3-(3-(trifluoromethyl)phenyl)urea], the Kd in test [1], in test [5] and in test [4] was less than 250 nM each time. Further, the S35 result in test [3] (setting [6]) is reported as “C* (0.20 < C ≦ 0.40)”.
For `COc1cc2ncnc(Sc3cccc(NC(=O)Nc4cc(C(F)(F)F)nn4C)c3)c2cc1OC` [Ex 193, 1-[3-(6,7-dimethoxyquinazolin-4-ylthio)phenyl]-3-[1-methyl-3-(trifluoromethyl)-1H-pyrazol-5-yl]urea], the Kd in test [1], in test [5] and in test [4] was less than 250 nM in each case. Moreover, the S35 entry in test [3] (setting [6]) was “D* (D > 0.40)”.
For the molecule `COc1cc2ncnc(Sc3cccc(NC(=O)Nc4cc(C(C)(CF)CF)nn4-c4ccccc4)c3)c2cc1OC` [Ex 196, 1-[3-(1,3-difluoro-2-methylpropan-2-yl)-1-phenyl-1H-pyrazol-5-yl]-3-[3-(6,7-dimethoxyquinazolin-4-ylthio)phenyl]urea], the Kd in test [1], in test [5] and in test [4] was more than 1000 nM throughout. Further, in test [3] (setting [6]), the S35 entry is listed as “D* (D > 0.40)”.

For the origin of these results see patent US9730937B2, “RAF kinase modulator compounds and methods of use thereof” (AMBIT BIOSCIENCES CORPORATION, priority 2008, dated 2017).
